Read-outs that look alike come from different tables or passages of the source.
Assays:
Assay type in all cases: cell-based, human
SiHa cells = assay: CCK8 antiproliferative activity assay on SiHa cells; conditions: 48 h, read-out: IC50, antiproliferation activity on SiHa cells (PC phenolics)
Description: (§1) The SiHa cell line was obtained from American Type Culture Collection (ATCC, Manassas, Virginia, VA, USA); HcerEpic cell was obtained from ScienCell (San Diego, Los Angeles, LA, USA). The cells were maintained in medium RP1640 containing 10% FBS, high glucose DMEM cultured with 100 U/ml of penicillin, and 100 U/ml of streptomycin, in a humidified CO2 (5%) incubator at 37°C. All reagents for cell cultures were purchased from Invitrogen (Carlsbad, California, CA, USA).
(§2) SiHa and HcerEpic cells were cultured in 96-well plates at approximately 7.5 × 10^3 cells per well and incubated for 12 h. Then, cells were treated with different concentrations of PC extracts (5, 10, 25, 50, and 100 μg/mL) or seven PC PHE (10, 20, 40, 60, and 80 μM). After incubation of 48 h, then 10 μL CCK8 reagent added per hole, placed in the incubator 2 h, incubation, enzyme standard instrument determination at 450 nm absorbance (OD value).
(§3) Cell vitality∗(%) = [A (dosing) − A (blank)]/[A dosing (O) − A (blank)] × 100%A (dosing): OD values of Wells with cell, CCK8 solution, and drug solution.
(§4) A (blank): OD values of Wells with medium, CCK8 solution, and no cells.
(§5) A (0 dosing): OD values of Wells with cell and CCK8 solution but no drug solution.

HcerEpic cells = assay: CCK8 antiproliferative activity assay on HcerEpic cells; conditions: 48 h, read-out: IC50, antiproliferation activity on HcerEpic cells (PC phenolics)
Description: as §1, §2, §3, §4, §5

[1] = tested on: P53, Bax, Bcl-2, caspase 3, caspase 9 in SiHa cells; assay: Western blot of apoptosis-related proteins in SiHa cells; conditions: SiHa cells, 25, 50, 75 μM, 48 h, compared with control
Description: We followed the Western blot methods of Tu et al. 2020 [24]. […] The culture was terminated after 48 h. Then, cells were collected and proteins were extracted with RIPA lysis buffer containing a protease inhibitor cocktail. The total protein concentrations were measured using the Bradford method, and the normalized protein samples were added to 4 sample buffer, then boiled and denatured. Equal amounts of proteins were separated by SDS-PAGE and then transferred to nitrocellulose membranes. The membranes were blocked and then probed with indicated primary antibodies, respectively, with anti-P53 (1 : 1000), anti-Bax (1 : 1000), anti-Bcl-2 (1 : 1000), anti-caspase 3 (1 : 2500), anti-caspase 9 (1 : 2500), anti-cleaved-caspase 3 (1 : 1000), and anti-cleaved-caspase 9 (1 : 1000), at 4°C overnight. Antibodies were purchased from Abcam (Santa Cruz, California, CA, USA); others were from Cell Signaling Technology (Cell Signaling, Danvers, Massachusetts, MA, USA). All antibodies were diluted with 5% BSA in TBST buffer. The blots were rinsed and then incubated with secondary antibodies (anti-mouse antibody or anti-rabbit antibody, 1 : 5000, Cell Signaling Technology). Reactive bands were visualized using ECL (Thermo Fisher Scientific; Waltham, MA, USA) and then calibrated by ChemiDoc Imaging System (Bio-Rad; Hercules, California, CA, USA).

Compound | IC50 (SiHa cells) | IC50 (HcerEpic cells) | IC50 (SiHa cells; Homo sapiens, SiHa) | IC50 (HcerEpic cells; Homo sapiens) | expression level of Bcl-2 protein [1] | expression level of Caspase3 protein [1] | expression level of Csapase9 protein [1] | expression level of P53 protein [1]
O=C1CC(C(=O)O)c2c1oc(=O)c1cc(O)c(O)c(O)c21 (stereo not shown) [Brevifolin carboxylic acid] | > 100 µM | > 100 µM | – | – | – | – | – | –
O=C(O)C[C@@H]1C(=O)O[C@H]2[C@@H]3OC(=O)c4cc(O)c(O)c(O)c4-c4c(cc(O)c(O)c4O)C(=O)OC[C@H]2O[C@@H](OC(=O)c2cc(O)c(O)c(O)c2)[C@@H]3OC(=O)c2cc(O)c(O)c3c2[C@H]1[C@H](O)C(=O)O3 [Chebulagic acid] | – | – | > 100 µM | > 100 µM | – | – | – | –
O=C(/C=C/c1ccc(O)c(O)c1)O[C@@H]1C[C@](O)(C(=O)O)C[C@@H](O)[C@H]1O [Chlorogenic acid] | – | – | > 100 µM | > 100 µM | – | – | – | –
O=C(O[C@@H]1O[C@@H]2COC(=O)c3cc(O)c(O)c(O)c3-c3c(cc(O)c(O)c3O)C(=O)O[C@H]([C@H]1O)[C@@H]2O)c1cc(O)c(O)c(O)c1 [Corilagin] | – | – | 28.7 µM | > 100 µM | downregulated | significantly upregulated | significantly upregulated | significantly upregulated
O=c1oc2c(O)c(O)cc3c(=O)oc4c(O)c(O)cc1c4c23 [Ellagic acid] | – | – | 21.5 µM | > 100 µM | downregulated | significantly upregulated | significantly upregulated | significantly upregulated
O=C(O)c1cc(O)c(O)c(O)c1 [Gallic acid] | – | – | > 100 µM | > 100 µM | – | – | – | –
Citrate acid | > 100 µM | > 100 µM | – | – | – | – | – | –
